Results reported in patent US5173416A, “L-carnitine dehydrogenase from alcalgenes” (Toyo Jozo Kabushiki Kaisha, priority 1989, dated 1992).
Like-named read-outs stand apart in the source and are kept apart here.

Tested on: L-carnitine dehydrogenase from Alcaligenes sp. No. 981 (FERM BP-2570)
Test: Km determination of L-carnitine dehydrogenase (diaphorase/NBT coupled reaction mixture)
Assay type: biochemical
Procedure: Km-value for NAD^+ is measured in various concentrations of NAD^+ in a reaction mixture of:
100 mM Tris-HCl buffer (pH 9.0)
5 U diaphorase (Toyo Jozo Co.)
0.025% NBT (Wako Pure Chem. Co.)
1% Tween 80 (Wako Pure Chem. Co.) and
In the reaction mixture, 50 mM L-carnitine is replaced by 1 mM NAD^+, and the concentration of L-carnitine is varied to measure the Km-value of L-carnitine.
The results are as shown above.

For `C[N+](C)(C)C[C@H](O)CC(=O)[O-]` [L-carnitine], which Km (100 mM Tris-HCl buffer pH 9.0, 1 mM NAD+, L-carnitine concentration varied, read-out: Km-value (L-carnitine)) is on record?
Its Km is 9.3 mM.

For `NC(=O)c1ccc[n+]([C@@H]2O[C@H](COP(=O)([O-])OP(=O)(O)OC[C@H]3O[C@@H](n4cnc5c(N)ncnc54)[C@H](O)[C@@H]3O)[C@@H](O)[C@H]2O)c1` [NAD^+], which Km (100 mM Tris-HCl buffer pH 9.0, 50 mM L-carnitine, NAD+ concentration varied, read-out: Km-value (NAD+)) is on record?
The Km was 0.141 mM.
